Tests used:
Assay type in all cases: binding
[1] = target: T1, kinases (KINOMEscan panel) (Homo sapiens, UniProt Q7L7X3); settings: kinase TAOK1; NEW KINOMEscan
T1 sequence (Q7L7X3 1-1001): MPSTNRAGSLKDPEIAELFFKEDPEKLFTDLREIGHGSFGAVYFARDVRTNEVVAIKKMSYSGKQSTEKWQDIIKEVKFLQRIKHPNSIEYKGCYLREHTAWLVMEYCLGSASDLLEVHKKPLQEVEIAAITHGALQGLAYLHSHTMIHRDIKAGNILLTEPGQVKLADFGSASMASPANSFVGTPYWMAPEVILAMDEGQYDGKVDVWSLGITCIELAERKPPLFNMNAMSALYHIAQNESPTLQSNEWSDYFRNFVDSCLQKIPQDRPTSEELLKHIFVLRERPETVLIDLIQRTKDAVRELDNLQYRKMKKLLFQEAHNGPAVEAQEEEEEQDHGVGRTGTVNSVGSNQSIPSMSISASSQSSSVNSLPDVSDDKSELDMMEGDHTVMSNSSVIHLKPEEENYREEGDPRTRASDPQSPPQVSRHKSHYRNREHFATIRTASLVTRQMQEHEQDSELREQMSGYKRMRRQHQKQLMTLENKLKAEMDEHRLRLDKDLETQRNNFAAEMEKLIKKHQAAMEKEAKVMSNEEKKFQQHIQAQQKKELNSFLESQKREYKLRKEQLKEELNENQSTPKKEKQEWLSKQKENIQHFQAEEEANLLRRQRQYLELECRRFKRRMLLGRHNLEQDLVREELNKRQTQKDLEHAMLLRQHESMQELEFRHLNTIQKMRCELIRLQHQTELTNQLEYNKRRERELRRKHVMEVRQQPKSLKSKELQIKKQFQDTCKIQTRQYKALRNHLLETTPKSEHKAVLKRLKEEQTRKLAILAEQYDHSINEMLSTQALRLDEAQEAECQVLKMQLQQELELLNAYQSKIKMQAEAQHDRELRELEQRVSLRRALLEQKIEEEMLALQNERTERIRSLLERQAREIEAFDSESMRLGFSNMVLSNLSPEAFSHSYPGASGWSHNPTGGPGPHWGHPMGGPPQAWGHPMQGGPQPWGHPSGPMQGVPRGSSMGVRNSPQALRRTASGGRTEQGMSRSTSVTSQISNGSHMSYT

[2] = target: kinases (KINOMEscan panel) (Homo sapiens, UniProt P22607, G697C); settings: FGFR3(G697C); NEW KINOMEscan
[3] = target: T2, kinases (KINOMEscan panel) (Homo sapiens, UniProt Q9UL54); settings: kinase TAOK2; NEW KINOMEscan
T2 sequence (Q9UL54 1-1235): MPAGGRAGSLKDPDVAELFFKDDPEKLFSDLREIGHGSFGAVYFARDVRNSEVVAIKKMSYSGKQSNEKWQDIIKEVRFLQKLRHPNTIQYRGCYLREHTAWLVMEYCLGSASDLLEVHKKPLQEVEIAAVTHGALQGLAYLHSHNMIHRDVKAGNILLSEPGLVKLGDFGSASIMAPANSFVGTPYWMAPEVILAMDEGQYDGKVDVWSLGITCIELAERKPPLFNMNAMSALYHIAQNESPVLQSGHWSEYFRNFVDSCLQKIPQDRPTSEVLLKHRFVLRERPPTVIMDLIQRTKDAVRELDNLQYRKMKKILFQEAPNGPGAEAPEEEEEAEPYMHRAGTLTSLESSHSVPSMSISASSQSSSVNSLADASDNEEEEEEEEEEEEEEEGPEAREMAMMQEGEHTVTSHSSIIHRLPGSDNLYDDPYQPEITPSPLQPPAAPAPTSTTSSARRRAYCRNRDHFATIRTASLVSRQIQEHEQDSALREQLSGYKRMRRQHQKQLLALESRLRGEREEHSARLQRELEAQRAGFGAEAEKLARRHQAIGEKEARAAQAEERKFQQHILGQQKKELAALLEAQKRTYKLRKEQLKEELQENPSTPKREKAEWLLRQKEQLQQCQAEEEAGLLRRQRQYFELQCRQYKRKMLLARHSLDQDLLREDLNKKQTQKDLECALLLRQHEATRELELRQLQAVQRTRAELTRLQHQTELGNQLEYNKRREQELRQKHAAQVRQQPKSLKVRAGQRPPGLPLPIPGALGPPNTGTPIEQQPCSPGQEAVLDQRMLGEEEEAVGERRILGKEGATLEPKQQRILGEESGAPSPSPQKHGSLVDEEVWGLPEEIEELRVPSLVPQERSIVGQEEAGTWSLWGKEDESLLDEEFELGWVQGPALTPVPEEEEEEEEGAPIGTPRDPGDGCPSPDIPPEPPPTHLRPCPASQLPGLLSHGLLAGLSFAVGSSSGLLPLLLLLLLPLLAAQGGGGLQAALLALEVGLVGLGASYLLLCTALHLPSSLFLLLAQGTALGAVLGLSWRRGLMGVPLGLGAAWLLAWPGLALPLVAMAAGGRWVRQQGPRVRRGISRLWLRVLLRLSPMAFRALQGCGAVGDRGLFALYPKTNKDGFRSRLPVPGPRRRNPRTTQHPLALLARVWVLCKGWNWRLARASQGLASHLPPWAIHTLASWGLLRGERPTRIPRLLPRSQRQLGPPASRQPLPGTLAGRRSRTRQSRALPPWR

[4] = target: kinases (KINOMEscan panel) (Homo sapiens, UniProt P80192); settings: NEW KINOMEscan
[5] = target: kinases (KINOMEscan panel) (Homo sapiens, UniProt Q9P1W9); settings: PIM2; NEW KINOMEscan
kinases (KINOMEscan panel) (Homo sapiens, UniProt Q9P1W9), sequence (Q9P1W9 whole entry): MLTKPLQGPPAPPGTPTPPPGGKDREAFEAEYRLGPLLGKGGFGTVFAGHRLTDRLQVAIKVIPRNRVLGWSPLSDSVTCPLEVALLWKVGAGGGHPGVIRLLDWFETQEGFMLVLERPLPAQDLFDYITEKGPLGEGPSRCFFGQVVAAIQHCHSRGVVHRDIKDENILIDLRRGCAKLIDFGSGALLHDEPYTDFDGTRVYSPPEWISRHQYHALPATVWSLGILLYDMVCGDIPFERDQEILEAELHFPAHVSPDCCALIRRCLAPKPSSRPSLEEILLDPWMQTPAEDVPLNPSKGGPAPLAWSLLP

kinases (KINOMEscan panel) (Homo sapiens, UniProt P22607, G697C), sequence (P22607 23-806 G697C): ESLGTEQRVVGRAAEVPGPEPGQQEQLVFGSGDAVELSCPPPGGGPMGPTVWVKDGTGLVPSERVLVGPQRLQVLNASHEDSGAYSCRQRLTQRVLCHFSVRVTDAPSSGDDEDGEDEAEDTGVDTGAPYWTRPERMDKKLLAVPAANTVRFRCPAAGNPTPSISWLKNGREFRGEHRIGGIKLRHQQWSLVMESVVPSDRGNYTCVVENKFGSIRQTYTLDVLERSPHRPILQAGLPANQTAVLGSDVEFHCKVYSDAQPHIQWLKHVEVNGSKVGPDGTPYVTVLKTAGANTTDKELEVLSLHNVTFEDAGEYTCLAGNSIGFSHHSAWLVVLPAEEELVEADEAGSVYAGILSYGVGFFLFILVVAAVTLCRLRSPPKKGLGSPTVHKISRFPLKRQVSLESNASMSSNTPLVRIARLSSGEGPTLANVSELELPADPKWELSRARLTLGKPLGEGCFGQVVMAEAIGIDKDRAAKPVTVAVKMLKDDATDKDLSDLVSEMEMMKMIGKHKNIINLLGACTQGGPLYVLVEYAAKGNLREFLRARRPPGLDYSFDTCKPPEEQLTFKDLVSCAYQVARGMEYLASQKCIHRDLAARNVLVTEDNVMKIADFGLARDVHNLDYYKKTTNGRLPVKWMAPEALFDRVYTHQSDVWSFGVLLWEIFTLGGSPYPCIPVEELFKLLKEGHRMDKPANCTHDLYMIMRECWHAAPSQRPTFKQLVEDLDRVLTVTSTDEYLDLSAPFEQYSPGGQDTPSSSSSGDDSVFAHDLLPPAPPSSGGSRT
kinases (KINOMEscan panel) (Homo sapiens, UniProt P80192), sequence (P80192 whole entry): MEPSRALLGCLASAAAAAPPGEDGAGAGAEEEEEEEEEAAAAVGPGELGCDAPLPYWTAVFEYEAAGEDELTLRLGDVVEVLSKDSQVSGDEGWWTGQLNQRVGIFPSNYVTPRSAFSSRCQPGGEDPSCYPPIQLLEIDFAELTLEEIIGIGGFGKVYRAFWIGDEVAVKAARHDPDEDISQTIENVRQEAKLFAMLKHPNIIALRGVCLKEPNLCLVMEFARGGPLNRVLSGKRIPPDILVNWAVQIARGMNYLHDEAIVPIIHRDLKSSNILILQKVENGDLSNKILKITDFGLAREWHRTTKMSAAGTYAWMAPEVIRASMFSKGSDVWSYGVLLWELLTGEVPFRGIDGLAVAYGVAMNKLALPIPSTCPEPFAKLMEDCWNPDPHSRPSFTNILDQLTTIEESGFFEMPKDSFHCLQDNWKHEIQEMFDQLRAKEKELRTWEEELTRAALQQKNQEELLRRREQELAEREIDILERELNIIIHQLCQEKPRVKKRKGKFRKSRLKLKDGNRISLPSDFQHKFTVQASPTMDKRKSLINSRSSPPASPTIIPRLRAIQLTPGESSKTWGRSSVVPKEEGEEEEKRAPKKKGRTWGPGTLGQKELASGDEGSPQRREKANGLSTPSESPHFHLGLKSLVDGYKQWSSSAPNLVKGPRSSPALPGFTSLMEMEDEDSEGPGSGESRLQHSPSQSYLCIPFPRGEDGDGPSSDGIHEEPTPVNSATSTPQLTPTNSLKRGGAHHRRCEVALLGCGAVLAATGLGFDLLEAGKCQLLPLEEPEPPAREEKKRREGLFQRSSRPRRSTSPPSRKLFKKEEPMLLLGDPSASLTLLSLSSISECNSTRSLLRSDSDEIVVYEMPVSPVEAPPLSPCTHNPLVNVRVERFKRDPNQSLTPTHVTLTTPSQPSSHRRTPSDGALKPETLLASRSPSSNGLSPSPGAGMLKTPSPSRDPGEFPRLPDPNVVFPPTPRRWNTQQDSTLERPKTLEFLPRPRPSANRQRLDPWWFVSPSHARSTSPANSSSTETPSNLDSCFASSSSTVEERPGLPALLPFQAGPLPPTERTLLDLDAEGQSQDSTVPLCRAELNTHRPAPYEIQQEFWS

Row | SMILES | KINOMEscan TAOK1 [1] | KINOMEscan FGFR3(G697C) [2] | KINOMEscan TAOK2 [3] | KINOMEscan MAP3K9 [4] | KINOMEscan PIM2 [5]
1 | Cc1cccc(-c2nc(Nc3ccc4nn(C)cc4c3)c3ccccc3n2)n1 [NK167] | 0 | 6 | 19 | 11 | 2
2 | Cc1cccc(-c2nc(N(C)c3ccc4ncsc4c3)c3ccccc3n2)n1 [NK-161] | 1 | 0 | 20 | 27 | 18

Source: PMC9851200, “Multiparameter phenotypic screening for endogenous TFEB and TFE3 translocation identifies novel chemical series modulating lysosome function” (Autophagy, 2022)
